Drawing on US8975398B2, “NAMPT inhibitors” (AbbVie Inc., priority 2012, dated 2015), this text covers IC50 for twelve molecules.

Assay [1] has as its target NAMPT (human, recombinant, C-terminally His-tagged) (Homo sapiens, UniProt P43490). Kind of assay: Time-Resolved Fluorescence Resonance Energy Transfer (TR-FRET) Binding Assay of NAMPT. The conditions noted are these: 6.8 nM NAMPT, 200 nM probe, equilibrated 3 hours, absence of substrates. In short, it runs like this:
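Probe displacement measured by TR-FRET (Ex 337 nm; 520/495 nm ratio) after 3 h room-temperature equilibration of compound with 6.8 nM His-tagged human NAMPT, 1 nM Tb-anti-His antibody and 200 nM Oregon Green 488 nicotinamide-site probe, pH 7.5 HEPES buffer, 2% DMSO. Control-normalized data fit four-parameter logistic for IC50.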

Assay [2] concerns the target NAMPT (Homo sapiens, UniProt P43490). The assay can be described thus: Time-Resolved Fluorescence Resonance Energy Transfer (TR-FRET) Binding Assay of NAMPT with PRPP. Conditions: 2 nM NAMPT, 2 nM probe, 200 uM PRPP and 2.5 mM ATP, equilibrated 16 hours. In short, it runs like this:
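Binding measured by TR-FRET after a 16-hour equilibration meant to permit enzymatic compound modification. Substrates present at 200 uM PRPP and 2.5 mM ATP, with 2 nM enzyme, 2 nM probe, 1 nM Tb-anti-His antibody and 2% DMSO final.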

pIC50: −log10 of the molar value.

Chain of NAMPT (P43490 whole entry): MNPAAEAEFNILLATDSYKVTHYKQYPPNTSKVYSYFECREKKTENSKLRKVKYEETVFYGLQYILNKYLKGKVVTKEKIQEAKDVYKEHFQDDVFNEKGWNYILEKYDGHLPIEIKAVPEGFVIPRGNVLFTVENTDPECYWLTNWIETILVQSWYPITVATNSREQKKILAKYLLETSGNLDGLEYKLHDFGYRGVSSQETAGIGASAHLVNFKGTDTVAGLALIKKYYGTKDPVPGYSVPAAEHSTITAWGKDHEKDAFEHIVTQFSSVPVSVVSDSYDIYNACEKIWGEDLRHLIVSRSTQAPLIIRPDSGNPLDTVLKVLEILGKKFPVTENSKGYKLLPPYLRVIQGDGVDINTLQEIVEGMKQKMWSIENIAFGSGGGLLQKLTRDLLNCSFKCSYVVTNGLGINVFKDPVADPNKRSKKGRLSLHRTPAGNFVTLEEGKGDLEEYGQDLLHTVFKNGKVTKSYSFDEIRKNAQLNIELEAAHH
Chain of NAMPT (human, recombinant, C-terminally His-tagged) (P43490 whole entry): as above

A word on the pIC50: it is −log10 of the IC50, conventionally taken in molar units. In the case of `Cc1ncccc1N1CC(C(=O)Nc2ccc(C3CCN(C(=O)CC4C[C@@H]5CC[C@H]4C5)CC3)cc2)C1` (stereo partly drawn) [Example 161, N-(4-{1-[(1S,4R)-bicyclo[2.2.1]hept-2-ylacetyl]piperidin-4-yl}phenyl)-1-(2-methylpyridin-3-yl)azetidine-3-carboxamide], the pIC50 in assay [1] is 6.89; in assay [2] it was 7.22.

As to `Cc1ncccc1N1CC(C(=O)Nc2ccc(C3CCN(C(=O)CC4CCCC4)CC3)cc2)C1` [Example 162, N-{4-[1-(cyclopentylacetyl)piperidin-4-yl]phenyl}-1-(2-methylpyridin-3-yl)azetidine-3-carboxamide], the pIC50 is 6.84 in assay [1] and 7.15 in assay [2].

Regarding `Cc1ncccc1N1CC(C(=O)Nc2ccc(C3CCN(C(=O)C4CC4C)CC3)cc2)C1` (stereo not drawn) [Example 163, N-(4-{1-[(2-methylcyclopropyl)carbonyl]piperidin-4-yl}phenyl)-1-(2-methylpyridin-3-yl)azetidine-3-carboxamide], the negative logarithm of the IC50 (pIC50) in assay [1] was 6.78; in assay [2], 7.08.

For the molecule `Cc1ncccc1N1CC(C(=O)Nc2ccc(C3CCN(C(=O)CN4CCOCC4)CC3)cc2)C1` [Example 164, 1-(2-methylpyridin-3-yl)-N-{4-[1-(morpholin-4-ylacetyl)piperidin-4-yl]phenyl}azetidine-3-carboxamide], the pIC50 in assay [1] is 6.01; in assay [2] it was 6.91.

In the case of `Cc1ncccc1N1CC(C(=O)Nc2ccc(C3CCN(C(=O)c4ccoc4)CC3)cc2)C1` [Example 165, N-{4-[1-(furan-3-ylcarbonyl)piperidin-4-yl]phenyl}-1-(2-methylpyridin-3-yl)azetidine-3-carboxamide], the negative logarithm of the IC50 (pIC50) in assay [1] was 7.45; in assay [2] it was 7.17.

Turning to `Cc1ncccc1N1CC(C(=O)Nc2ccc(C3CCN(C(=O)CN4CCCC4)CC3)cc2)C1` [Example 166, 1-(2-methylpyridin-3-yl)-N-{4-[1-(pyrrolidin-1-ylacetyl)piperidin-4-yl]phenyl}azetidine-3-carboxamide], the negative-log IC50 (pIC50) is 5.64 in assay [1] and 6.69 in assay [2].

On to `Cc1ncccc1N1CC(C(=O)Nc2ccc(C3CCN(C(=O)[C@H]4CCC(=O)N4)CC3)cc2)C1` [Example 167, 1-(2-methylpyridin-3-yl)-N-{4-[1-(5-oxo-D-prolyl)piperidin-4-yl]phenyl}azetidine-3-carboxamide], for which the figures for the negative-log IC50 (pIC50) in assay [1] and in assay [2] were 5.43 and 6.69, respectively.

Consider `Cc1ncccc1N1CC(C(=O)Nc2ccc(C3CCN(C(=O)CCN(C)C)CC3)cc2)C1` [Example 168, N-{4-[1-(N,N-dimethyl-beta-alanyl)piperidin-4-yl]phenyl}-1-(2-methylpyridin-3-yl)azetidine-3-carboxamide], for which the values for the pIC50 in assay [1] and in assay [2] were 5.53 and 6.77, respectively.

As for `Cc1ncccc1N1CC(C(=O)Nc2ccc(C3CCN(C(=O)c4ccsc4)CC3)cc2)C1` [Example 169, 1-(2-methylpyridin-3-yl)-N-{4-[1-(thiophen-3-ylcarbonyl)piperidin-4-yl]phenyl}azetidine-3-carboxamide], the values for the negative-log IC50 (pIC50) in assay [1] and in assay [2] were 7.47 and 7.17, respectively.

In the case of `Cc1ncccc1N1CC(C(=O)Nc2ccc(C3CCN(C(=O)C4(C)CC4)CC3)cc2)C1` [Example 170, N-(4-{1-[(1-methylcyclopropyl)carbonyl]piperidin-4-yl}phenyl)-1-(2-methylpyridin-3-yl)azetidine-3-carboxamide], the values for the pIC50 in assay [1] and in assay [2] were 7.04 and 7.05, respectively.

As to `Cc1ccsc1C(=O)N1CCC(c2ccc(NC(=O)C3CN(c4cccnc4C)C3)cc2)CC1` [Example 171, 1-(2-methylpyridin-3-yl)-N-(4-{1-[(3-methylthiophen-2-yl)carbonyl]piperidin-4-yl}phenyl)azetidine-3-carboxamide], the negative-log IC50 (pIC50) in assay [1] is 7.71; in assay [2] it was 7.42.

Regarding `Cc1ncccc1N1CC(C(=O)Nc2ccc(C3CCN(C(=O)CCC(F)(F)F)CC3)cc2)C1` [Example 172, 1-(2-methylpyridin-3-yl)-N-{4-[1-(4,4,4-trifluorobutanoyl)piperidin-4-yl]phenyl}azetidine-3-carboxamide], the pIC50 in assay [1] is 6.54; in assay [2] it was 6.77.
